Tested on: Meloidogyne incognita
Experiment: Meloidogyne test (MELGIN spray treatment)
Type: in vivo
Settings: 20 ppm; sand with egg-larvae suspension and lettuce seeds; 100 % = no galls found
Excerpt: Meloidogyne-Test (MELGIN Spritzbehandlung)
Zur Herstellung einer zweckmäßigen Wirkstoffzubereitung vermischt man 1 Gewichtsteil Wirkstoff mit der angegebenen Menge Lösungsmittel und verdünnt das Konzentrat mit Wasser auf die gewünschte Konzentration.
Gefäße werden mit Sand, Wirkstofflösung, Meloidogyne incognita-Ei-Larven-Suspension und Salatsamen gefüllt. Die Salatsamen keimen und die Pflänzchen entwickeln sich. An den Wurzeln entwickeln sich die Gallen.
Nach der gewünschten Zeit wird die nematizide Wirkung an Hand der Gallenbildung in % bestimmt. Dabei bedeutet 100 %, dass keine Gallen gefunden wurden; 0 % bedeutet, dass die Zahl der Gallen an den behandelten Pflanzen der der unbehandelten Kontrolle entspricht.
Bei diesem Test zeigen z. B. die folgenden Verbindungen der Herstellungsbeispiele eine Wirkung von ≥ 80 % bei einer Aufwandmenge von 20 ppm: Beispiel Nr. I-1, I-2

| Structure (SMILES) | nematizide Wirkung an Hand der Gallenbildung |
| --- | --- |
| CN(Cc1ccccn1)S(=O)(=O)c1ccccc1C#N [I-1, 2-Cyano-N-methyl-N-(pyridin-2-ylmethyl)benzolsulfonamid] | ≥ 80% |
| CN(Cc1ccccn1)S(=O)(=O)c1cccc(F)c1C#N [I-2] | ≥ 80% |
